Experimental findings from PubChem BioAssay (NCI) are described below.

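All cell lines were grown in 96-well plates and treated with compound for 48 hours. Abbreviation: GI50, concentration required for 50% inhibition of growth. At the TGI there is no net growth.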

Assay in all cases: NCI tumour cell line growth inhibition, 48 h
The test system of test [1] is 786-0 renal.
Test [2] deals with ACHN renal.
In test [3] the test system is LOX IMVI melanoma.
Test [4] relates to MOLT-4 leukemia.
Test [5] concerns RPMI-8226 leukemia.
Test [6] has as its system SK-MEL-5 melanoma.
For test [7], the system named is SK-OV-3 ovarian.
For test [8], the system named is EKVX NSCLC.
In test [9] the test system is RXF 393 renal.
Test [10] deals with PC-3 prostate.

In the case of `CCn1c(O)c(C(=O)Nc2cccs2)c(=O)n(CC)c1=S`, the TGI came out at 42.2 µM in [1]; 63.2 µM in [2]; 33.3 µM in [3]; 59.8 µM in test [4]; 55.1 µM in test [5]; 38.5 µM in test [6]. In test [7], this compound had a TGI of 77.9 µM.

For the compound `Cc1c(Cl)ccc2[s+]snc12`, the TGI in [1] was 36.2 µM; in [2], above 100 µM; in [8], above 100 µM; in test [3], 49.9 µM; in [4], 95.1 µM; in [9], 37.2 µM. For the same compound, the TGI is 52.1 µM in [6] and above 100 µM in test [7].

For the compound `Cc1cc2c(=O)cc(-c3ccncc3)oc2c(C(N)=O)c1C`, the TGI in test [1], in test [2], in test [8], in test [3], in test [4] and in test [5] was above 100 µM throughout. The TGI in [9] and in test [7] was above 100 µM each time.

For `O=C(NC(=Nc1ccccc1)SCCSC(=Nc1ccccc1)NC(=O)c1ccccc1)c1ccccc1`, the TGI in test [1], in test [2], in [8], in test [3], in test [4] and in [5] was above 100 µM each time. Moreover, the results for the TGI in [9] and in [6] were 95.6 µM and above 100 µM, respectively.

Consider `O=C(c1ccco1)c1c(C(F)(F)F)n([O-])c2cc(Cl)c(Cl)cc2[n+]1=O`, for which the GI50 is 0.241 µM in [1]; 0.443 µM in test [2]; 0.887 µM in test [8]; 0.169 µM in test [3]; 0.0591 µM in test [4]; 0.23 µM in [10]. The GI50 was 0.196 µM in test [5], 0.727 µM in test [6] and 2.95 µM in test [7]. The TGI in test [1] worked out at 0.456 µM; in test [2] it was 1.11 µM; in [8], 1.86 µM; in test [3], 0.52 µM; in test [4], 1.41 µM; in [10], 1.01 µM. Further, the TGI was 3.29 µM in test [5], 1.45 µM in test [6] and 5.83 µM in [7].

Regarding `CC(=O)Nc1ccc(/C=C/C(=O)c2sc(-n3nc(-c4ccccc4)cc3-c3ccccc3)nc2C)cc1`, the GI50 in [1], in test [2], in test [8], in test [3], in test [4] and in test [5] was above 100 µM throughout. Further, in test [9], the GI50 is above 100 µM. For the same compound, the TGI in test [1], in test [2], in [8], in test [3], in [4] and in [5] was above 100 µM throughout. For the same compound, the TGI in test [9] and in [6] was above 100 µM each time.

Turning to `O=C(c1ccccc1)N1CCc2c([nH]c3ccccc23)C1`, the TGI in test [1] is above 100 µM; in test [2] it was above 100 µM; in test [8], above 100 µM; in test [3], above 100 µM; in test [4] it was 64.4 µM; in test [5], 74.9 µM. In addition, the values for the TGI in test [6] and in test [7] were 47.6 µM and above 100 µM, respectively.

As to `COc1cc(/C=C(\C#N)C(=O)c2ccccc2)cc(OC)c1OC`, the TGI in test [1], in [2], in [8], in test [3], in test [4] and in [5] was above 100 µM throughout. The TGI in test [9] is 96.8 µM; in test [6], above 100 µM; in test [7], above 100 µM.

On to `COC(=O)N1C=Cc2c(c(C)c3c([nH]c4ccccc43)c2C)C1C` (centres undefined), for which the TGI in test [1] turned out to be 26.5 µM; in test [8], 32.1 µM; in [3], 33.7 µM; in test [4], 43.3 µM; in test [5] it was 38.2 µM; in test [6], 31.1 µM. The TGI in [7] worked out at 57.3 µM.

For the compound `CCCCCCCCCCCCCCCCCCCCCCC(=O)N[C@H]1CCc2cc(OC)c(OC)c(OC)c2-c2ccc(SC)c(=O)cc21`, the TGI in test [1] is above 100 µM; in [2], above 100 µM; in test [8] it was above 100 µM; in test [4], above 100 µM; in [6] it was above 100 µM; in test [7] it was 53.6 µM.

Turning to `O=C(Nc1cc(Cl)ccc1Cl)c1cc2ccccc2oc1=O`, the TGI in test [1], in test [2], in test [8], in test [3], in [4] and in test [5] was above 100 µM in each case. Moreover, the TGI in test [9], in [6] and in test [7] was above 100 µM in each case.

With `O=c1ccn([C@@H]2C[C@H](CO)CS(=O)C2)c(=O)[nH]1` (some centres undefined), the TGI in test [1], in test [2], in [8], in [3], in test [4] and in test [5] was above 100 µM each time. The TGI in [6] and in test [7] was above 100 µM throughout.

`CCC[CH2][Sn]1([CH2]CCC)[O]C(=O)c2cccnc2[S]1`: the GI50 was 2.55 µM in test [1]; 3.51 µM in [2]; 2.46 µM in [8]; 1.76 µM in test [3]; 1.87 µM in test [4]; 1.48 µM in test [5]. Moreover, the GI50 in [9] was 1.66 µM; in [6], 4.96 µM; in [7], 16.9 µM. Also, the TGI turned out to be 6.8 µM in test [1]; 11.7 µM in test [2]; 11.9 µM in test [8]; 3.6 µM in test [3]; 7.71 µM in test [4]; 5.29 µM in [5]. The TGI came out at 3.2 µM in test [9], 17 µM in [6] and 31.4 µM in [7].
